{"source": "patent US20090170899A1", "about": "“Stimulators of 5-HT4 receptors and uses thereof” (priority 2004, published 2009)", "system": "hippocampal CA3 pyramidal neurons", "experiment": "Acute i.v. prucalopride on firing of hippocampal CA3 pyramidal neurons, with microiontophoresis", "assay_type": "in vivo, rat", "conditions": "prucalopride 1000 μg/kg i.v.", "method": "FIGS. 9A to 9D. FIGS. 9A and 9C show a typical example (integrated firing rate histogram) of the response of a single hippocampal pyramidal neuron of the CA3 sub-field to an acute, intravenous administration of the selective 5-HT4 agonist prucalopride (1000 μg/kg), and its reversal by local, microiontophoretic application of the selective 5-HT1A antagonist WAY 100635 (A), or systemic injection of the selective 5-HT4 antagonist GR 125487 (1000 μg/kg, i.v.) (C). Single-cell extracellular recordings were performed in the CA3 region of chloral-hydrate anaesthetized rats by using multiple-barrel glass microelectrodes, combined with microiontophoretic pumps (with the central barrel used for recordings). Pyramidal neurons were identified according to the classical criteria (see Example 5, experimental procedures). FIGS. 9B and 9D show a summary of the effects as for FIGS. 9A and 9C, respectively. Bar histograms represent the mean (S.E.M.) percentage effect, calculated for each neuron with respect to its basal firing rate (i.e. 100% value), and the number in each column represents the number of neurons tested. *p<0.05 vs basal value, one-way ANOVA.\nMicroiontophoresis and extracellular recordings from hippocampal CA3 pyramidal neurons. Recording and microiontophoresis were performed with five-barreled glass micropipettes broken back to 8-12 μm under microscope control. The central barrel was filled with the same solution as in the DRN and was used for extracellular unitary recordings. Pyramidal neurons were identified by their large amplitude (0.5-1.2 mV) and long-duration (0.8-1.2 ms) simple spikes alternating with complex spike discharges (Kandel and Spencer, 1961). The side barrels contained the following solutions: quisqualate (1.5 mM in 200 mM NaCl, pH 8), WAY 100635 (15 mM in 200 mM NaCl, pH 4), and 2 M NaCl used for automatic current balancing. Rats were mounted in the stereotaxic apparatus and the micropipettes were lowered at 4.2 mm lateral and 4.2 anterior to lambda into the CA3 sub-region of the dorsal hippocampus.\nInvolvement of endogenous 5-HT and hippocampal 5-HT1A receptors in the effect of 5-HT4 agonists. […] This interpretation is consistent with our own previous findings, showing that both acute and chronic (3-day) administration of the same compounds augment DRN 5-HT neuronal firing activity (Lucas and Debonnel, 2002; Lucas et al., 2005). It is also in keeping with observations from a single in vivo microdialysis study, where acute systemic injection of preferential 5-HT4 agonists increased hippocampal 5-HT efflux (Ge and Barnes, 1996). To further address this possibility, two additional series of experiments were conducted. First, the role of endogenous 5-HT was assessed by using the same protocol as above, in rats co-treated with RS 67333 (or its vehicle) and the 5-HT depleter para-chlorophenylalanine (pCPA). […] The ejection currents of quisqualate needed to activate CA3 pyramidal neurons were, in this case, similar to those used in controls (0 to −2 nA, FIG. 8C). We then tested the ability of a local application of WAY 100635, directly into the CA3 subfield through the use of microiontophoresis, to modify the effect of a 5-HT4 agonist. We chose not to use the previous protocol (i.e. chronic treatments), because, as shown above, the required quisqualate currents differ between the experimental groups. Even though all currents were balanced, it was not possible to exclude the possibility that the amount of quisqualate present in the vicinity of the electrode may have an influence on the quantity of WAY 100635 actually ejected, and/or on its ability to act on pyramidal neurons. For this reason, prucalopride was used acutely in naïve rats, at a dose known to induce a significant augmentation of DRN 5-HT neuronal activity (1000 μg/kg, i.v.) (Lucas and Debonnel, 2002). […]", "data": [{"molecule": "COCCCN1CCC(NC(=O)c2cc(Cl)c(N)c3c2OCC3)CC1", "note": "[prucalopride]", "values": [{"measurement": "inhibition at 1 mg/kg", "setting": "Rattus norvegicus, Pyramidal neuron, iv, Discussion", "result": "~50", "unit": "%"}, {"measurement": "discharge of inhibited CA3 pyramidal neurons", "setting": "naïve rats, the 17 inhibited neurons", "result": "46 (±5.6) % of pre-drug values"}, {"measurement": "share of recorded pyramidal neurons inhibited", "setting": "17 of 38 neurons", "result": "45 % of total"}]}]}
